In patent US12606528B2, “Methods and materials for inhibiting NF-kB activity” (University of Pittsburgh - Of the Commonwealth System of …, priority 2019, dated 2026):

System: NF-κB
Assay: NF-κB assay: THP1-NF-κB-LUC cells, LPS-stimulated secreted luciferase
Format: cell-based
Details: THP1-NF-κB-LUC cells, LPS-stimulated; read-out: IC50 (NF-κB assay)
Procedure: FIG. 1 contains line plots showing NF-κB activity of exemplified compounds. 25k THP1-NF-κB-LUC cells were dispensed into 384 well plate (per well). Cells were treated with compounds (2 μM and 0.2 μM) for 2 hours before addition of LPS (10 ng/mL) for 18 hours. Secreted luciferase activity were measured using quant-luc reagents (1 bag of luc reagent dilute to 40 mL, use 10 μL per well). Data were normalized to vehicle control and graphed. Structures of selected exemplified compounds are shown.
FIG. 2 contains heat charts showing NF-κB activity of exemplified compounds as a function of concentration. 25k THP1-NF-κB-LUC cells were dispensed into 384 well plate (per well). Cells were treated with compounds (with serial dilution) for 2 hours before addition of LPS (10 ng/ml) for 18 hours. Secreted luciferase activity were measured using quant-luc reagents (1 bag of luc reagent dilute to 40 mL, use 10 μL per well). Structures of selected exemplified compounds are shown.
25k THP1-NF-κB-LUC cells were dispensed into 384 well plate (per well). Cells were treated with compounds with various concentrations for 2 hours before addition of LPS (10 ng/mL) for 18 hours. Secreted luciferase activity were measured using quant-luc reagents (1 bag of luc reagent dilute to 40 mL, use 10 μL per well). Data were normalized to vehicle control and graphed. Compound IC50 towards inhibiting NF-κB were determined through Prism. Similarly, 10k human PBMCs cells were cultured in 384 well plate (per well). Cells were treated with compounds with various concentrations for 2 hours before addition of LPS (10 ng/ml) for 18 hours, and supernatants were collected and assayed for TNF ELISA. Compound IC50 towards inhibiting TNF release were determined through Prism. • Activity: “+”>10 μM, “++”>1 μM and <10 μM, “+++”>0.1 μM and <1 μM, “++++”<0.1 μM.

SMILES	IC50
Cc1cccc(-c2nc3ccc(C(=O)NCc4ccc(Cl)cc4)cc3nc2-c2cccc(C)c2)c1 [BC18457]	> 10 µM
Cc1ccc(-c2nc3ccc(C(=O)NCc4ccc(F)cc4)cc3nc2-c2ccc(C)cc2)cc1 [BC18466]	> 10 µM
Cc1ccc(CNC(=O)c2ccc3nc(-c4cccc(C)c4)c(-c4cccc(C)c4)nc3c2)cc1 [BC18468]	> 10 µM
O=C(NCc1ccccc1)c1ccc2nc(-c3ccccc3)c(-c3ccccc3)nc2c1 [BC18475]	> 10 µM
Cc1ccc(CNC(=O)c2ccc3nc(-c4ccccc4)c(-c4ccccc4)nc3c2)cc1 [BC18486]	> 10 µM
CC(=O)CSc1oc(-c2ccccc2)nc1S(=O)(=O)c1ccc(Cl)cc1 [BC18501]	> 10 µM
CSc1oc(-c2ccccc2)nc1S(=O)(=O)c1ccc(F)cc1 [BC18502]	> 10 µM
CCCCSc1oc(-c2ccc(F)cc2)nc1S(=O)(=O)c1ccc(F)cc1 [BC18506]	> 10 µM
CC(C)Sc1oc(-c2ccc(F)cc2)nc1S(=O)(=O)c1ccc(Cl)cc1 [BC18507]	1 to 10 µM
CCSc1oc(-c2ccccc2)nc1S(=O)(=O)c1ccccc1 [BC18512]	1 to 10 µM
CSc1oc(-c2ccccc2)nc1S(=O)(=O)c1ccc(Cl)cc1 [BC18513]	> 10 µM
CCSc1oc(-c2ccc(C)cc2)nc1S(=O)(=O)c1ccc(F)cc1 [BC18514]	1 to 10 µM
CSc1oc(-c2ccc(F)cc2)nc1S(=O)(=O)c1ccccc1 [BC18515]	> 10 µM
O=C(CSc1oc(-c2ccc(F)cc2)nc1S(=O)(=O)c1ccccc1)c1ccc(Cl)cc1 [BC18516]	1 to 10 µM
CCC(C)Sc1oc(-c2ccc(F)cc2)nc1S(=O)(=O)c1ccc(C)cc1 (stereo not shown) [BC18517]	1 to 10 µM
CCC(C)Sc1oc(-c2ccc(F)cc2)nc1S(=O)(=O)c1ccc(F)cc1 (stereo not shown) [BC18518]	1 to 10 µM
CCCCSc1oc(-c2ccc(F)cc2)nc1S(=O)(=O)c1ccc(Cl)cc1 [BC18519]	> 10 µM

SMILES	IC50
O=S(=O)(Cc1ccc(F)cc1)c1oc(-c2ccccc2)nc1S(=O)(=O)c1ccccc1 [BC18523]	> 10 µM
CCS(=O)(=O)c1oc(-c2ccccc2)nc1S(=O)(=O)c1ccc(Cl)cc1 [BC18524]	1 to 10 µM
CC(=O)CSc1oc(-c2ccc(C)cc2)nc1S(=O)(=O)c1ccccc1 [BC18525]	> 10 µM
CCSc1oc(-c2ccc(F)cc2)nc1S(=O)(=O)c1ccccc1 [BC18526]	1 to 10 µM
CC(C)CSc1oc(-c2ccc(F)cc2)nc1S(=O)(=O)c1ccccc1 [BC18527]	1 to 10 µM
Cc1ccc(S(=O)(=O)c2nc(-c3ccc(F)cc3)oc2SCC(C)C)cc1 [BC18528]	> 10 µM
Cc1ccc(S(=O)(=O)c2nc(-c3ccc(F)cc3)oc2SCC(C)C)cc1 [BC18529]	1 to 10 µM
O=C(CSc1oc(-c2ccc(F)cc2)nc1S(=O)(=O)c1ccc(Cl)cc1)c1ccc(F)cc1 [BC18530]	1 to 10 µM
O=S(=O)(c1ccccc1)c1nc(-c2ccccc2)oc1SCc1ccccc1F [BC18534]	> 10 µM
CCCSc1oc(-c2ccccc2)nc1S(=O)(=O)c1ccc(Cl)cc1 [BC18535]	1 to 10 µM
CSc1oc(-c2ccc(C)cc2)nc1S(=O)(=O)c1ccc(Cl)cc1 [BC18536]	> 10 µM
CCCSc1oc(-c2ccc(F)cc2)nc1S(=O)(=O)c1ccccc1 [BC18537]	1 to 10 µM
CCCCCSc1oc(-c2ccc(F)cc2)nc1S(=O)(=O)c1ccccc1 [BC18538]	> 10 µM
NC(=O)CSc1oc(-c2ccc(F)cc2)nc1S(=O)(=O)c1ccc(F)cc1 [BC18539]	> 10 µM
CCCCCSc1oc(-c2ccc(F)cc2)nc1S(=O)(=O)c1ccc(F)cc1 [BC18540]	> 10 µM
CC(C)CSc1oc(-c2ccc(F)cc2)nc1S(=O)(=O)c1ccc(Cl)cc1 [BC18541]	> 10 µM

Second part, the compound after the results:

IC50	SMILES
< 0.1 µM	O=C(NCCN1CCCCC1)c1ccc2nc(-c3ccc(F)cc3)c(-c3ccc(F)cc3)nc2c1 [BC18456]
< 0.1 µM	O=C(NCc1cccnc1)c1ccc2nc(-c3ccc(F)cc3)c(-c3ccc(F)cc3)nc2c1 [BC18458]
< 0.1 µM	O=C(NCCCN1CCCC1=O)c1ccc2nc(-c3ccc(F)cc3)c(-c3ccc(F)cc3)nc2c1 [BC18459]
< 0.1 µM	CN1CCN(CCNC(=O)c2ccc3nc(-c4ccc(F)cc4)c(-c4ccc(F)cc4)nc3c2)CC1 [BC18460]
< 0.1 µM	O=C(NCCN1CCCCCC1)c1ccc2nc(-c3ccccc3)c(-c3ccccc3)nc2c1 [BC18461]
< 0.1 µM	O=C(c1ccc2nc(-c3ccccc3)c(-c3ccccc3)nc2c1)N1CCN(C(=O)c2ccco2)CC1 [BC18462]
1 to 10 µM	Cc1cccc(-c2nc3ccc(C(=O)NCCN4CCN(C)CC4)cc3nc2-c2cccc(C)c2)c1 [BC18463]
< 0.1 µM	O=C(NCCN1CCOCC1)c1ccc2nc(-c3ccccc3)c(-c3ccccc3)nc2c1 [BC18464]
0.1 to 1 µM	CC(C)CCNC(=O)c1ccc2nc(-c3ccccc3)c(-c3ccccc3)nc2c1 [BC18465]
0.1 to 1 µM	CC(CNC(=O)c1ccc2nc(-c3ccc(F)cc3)c(-c3ccc(F)cc3)nc2c1)c1ccccc1 (stereo not shown) [BC18467]
< 0.1 µM	CCN(CC)CCCNC(=O)c1ccc2nc(-c3ccc(F)cc3)c(-c3ccc(F)cc3)nc2c1 [BC18469]
< 0.1 µM	COCCNC(=O)c1ccc2nc(-c3ccc(F)cc3)c(-c3ccc(F)cc3)nc2c1 [BC18470]
< 0.1 µM	NC(=O)C1CCN(C(=O)c2ccc3nc(-c4ccc(F)cc4)c(-c4ccc(F)cc4)nc3c2)CC1 [BC18471]
0.1 to 1 µM	CCN1CCN(CCCNC(=O)c2ccc3nc(-c4ccccc4)c(-c4ccccc4)nc3c2)CC1 [BC18472]
< 0.1 µM	CCN1CCN(C(=O)c2ccc3nc(-c4ccccc4)c(-c4ccccc4)nc3c2)CC1 [BC18473]
1 to 10 µM	Cc1cccc(-c2nc3ccc(C(=O)NCCN(C)C4CCCCC4)cc3nc2-c2cccc(C)c2)c1 [BC18474]
0.1 to 1 µM	O=C(c1ccc2nc(-c3ccccc3)c(-c3ccccc3)nc2c1)N1CCN(c2ccccn2)CC1 [BC18476]
1 to 10 µM	CCOc1ccc(-c2nc3ccc(C(=O)NCCN(C)C)cc3nc2-c2ccc(OCC)cc2)cc1 [BC18477]
0.1 to 1 µM	CN(C)c1ccc(CNC(=O)c2ccc3nc(-c4ccc(F)cc4)c(-c4ccc(F)cc4)nc3c2)cc1 [BC18478]
1 to 10 µM	Cc1cccc(-c2nc3ccc(C(=O)NC(C)C)cc3nc2-c2cccc(C)c2)c1 [BC18479]
< 0.1 µM	CN(C)CCNC(=O)c1ccc2nc(-c3ccc(F)cc3)c(-c3ccc(F)cc3)nc2c1 [BC18480]
< 0.1 µM	O=C(NCc1cccs1)c1ccc2nc(-c3ccc(F)cc3)c(-c3ccc(F)cc3)nc2c1 [BC18481]

IC50	SMILES
< 0.1 µM	CN1CCN(C(=O)c2ccc3nc(-c4ccc(F)cc4)c(-c4ccc(F)cc4)nc3c2)CC1 [BC18482]
< 0.1 µM	CC1CCCCN1CCNC(=O)c1ccc2nc(-c3ccccc3)c(-c3ccccc3)nc2c1 (stereo not shown) [BC18483]
1 to 10 µM	Cc1cccc(-c2nc3ccc(C(=O)NCCN(C)C)cc3nc2-c2cccc(C)c2)c1 [BC18484]
1 to 10 µM	Cc1cccc(-c2nc3ccc(C(=O)NCCN4CCCCC4)cc3nc2-c2cccc(C)c2)c1 [BC18485]
< 0.1 µM	CCOC(=O)N1CCN(C(=O)c2ccc3nc(-c4ccccc4)c(-c4ccccc4)nc3c2)CC1 [BC18487]
1 to 10 µM	CCOc1ccc(-c2nc3ccc(C(=O)NCCN(C)Cc4ccccc4)cc3nc2-c2ccc(OCC)cc2)cc1 [BC18488]
< 0.1 µM	Cc1ccc(S(=O)(=O)c2nc(-c3ccccc3)oc2S(=O)(=O)c2ccc(C)cc2)cc1 [BC18500]
1 to 10 µM	CC(=O)CSc1oc(-c2ccc(F)cc2)nc1S(=O)(=O)c1ccccc1 [BC18503]
1 to 10 µM	O=S(=O)(c1ccccc1)c1nc(-c2ccc(F)cc2)oc1SCc1ccccc1F [BC18504]
1 to 10 µM	CCCCSc1oc(-c2ccc(F)cc2)nc1S(=O)(=O)c1ccc(C)cc1 [BC18505]
< 0.1 µM	CCS(=O)(=O)c1oc(-c2ccc(F)cc2)nc1S(=O)(=O)c1ccccc1 [BC18508]
< 0.1 µM	CCCCS(=O)(=O)c1oc(-c2ccc(F)cc2)nc1S(=O)(=O)c1ccc(C)cc1 [BC18509]
0.1 to 1 µM	CCCCS(=O)(=O)c1oc(-c2ccc(F)cc2)nc1S(=O)(=O)c1ccc(F)cc1 [BC18510]
< 0.1 µM	CC(C)S(=O)(=O)c1oc(-c2ccc(F)cc2)nc1S(=O)(=O)c1ccc(Br)cc1 [BC18511]
< 0.1 µM	CCCS(=O)(=O)c1oc(-c2ccc(F)cc2)nc1S(=O)(=O)c1ccccc1 [BC18520]
< 0.1 µM	CCC(C)S(=O)(=O)c1oc(-c2ccc(F)cc2)nc1S(=O)(=O)c1ccc(C)cc1 (stereo not shown) [BC18521]
< 0.1 µM	CS(=O)(=O)c1oc(-c2ccc(F)cc2)nc1S(=O)(=O)c1ccc(Cl)cc1 [BC18522]
< 0.1 µM	CC(C)S(=O)(=O)c1oc(-c2ccc(F)cc2)nc1S(=O)(=O)c1ccccc1 [BC18531]
< 0.1 µM	CCS(=O)(=O)c1oc(-c2ccc(F)cc2)nc1S(=O)(=O)c1ccc(F)cc1 [BC18532]
< 0.1 µM	CCCS(=O)(=O)c1oc(-c2ccc(F)cc2)nc1S(=O)(=O)c1ccc(Cl)cc1 [BC18533]
< 0.1 µM	CCCCS(=O)(=O)c1oc(-c2ccc(F)cc2)nc1S(=O)(=O)c1ccccc1 [BC18542]
